# Results published in publication PMC7429951 (Journal of Medicinal Chemistry, 2020).
# What was measured:
# [1] = molecular target: collagenase unit of ColG (ColG-CU) (Hathewaya histolytica, UniProt Q9X721); test: biochemical; design: species or system C. histolyticum; conditions: read-out: ColG-CU % inhibition @ 100 μM
# MMP-1 = molecular target: T1, MMP-1 (Homo sapiens, UniProt P03956); test: MMP-1 off-target inhibition; type: biochemical; conditions: read-out: MMP-1 % inhibition @ 100 μM; 100 μM compound
# T1 sequence (P03956 100-469): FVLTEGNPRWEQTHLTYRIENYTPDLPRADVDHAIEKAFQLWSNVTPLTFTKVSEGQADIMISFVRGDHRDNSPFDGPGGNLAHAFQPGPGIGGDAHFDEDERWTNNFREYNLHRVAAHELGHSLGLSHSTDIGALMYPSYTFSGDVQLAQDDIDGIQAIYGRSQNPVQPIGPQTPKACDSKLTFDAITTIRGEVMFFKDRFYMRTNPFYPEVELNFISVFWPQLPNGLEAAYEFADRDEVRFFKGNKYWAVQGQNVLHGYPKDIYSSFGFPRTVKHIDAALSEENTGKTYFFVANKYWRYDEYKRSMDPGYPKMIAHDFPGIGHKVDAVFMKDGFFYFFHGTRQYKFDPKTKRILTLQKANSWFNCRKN
# Description: (§1) Previously, we described N-aryl mercaptoacetamides with high selectivity for the bacterial over a broad range of human MMPs.[29],[30] MMPs are calcium-dependent zinc metalloproteases that play a pivotal role in numerous biochemical processes in humans.[39],[40] Based on the depth of their S1′ binding pocket, MMPs can be divided into three classes: deep (e.g., MMP-3 and -14), intermediate (e.g., MMP-2 and -8), and shallow (e.g., MMP-1 and -7). With the aim to explore the interactions of our inhibitors with all three pocket types, which could help us to assess potential effects on other not-tested representatives, we chose a panel of six MMPs, comprising two members of each class. In addition, HDAC-3, HDAC-8, and TACE (ADAM-17)—enzymes involved in gene expression and the processing of TNF-α,[41],[42] respectively—were selected as important additional human off-targets.
# MMP-8 = MMP-8 (Homo sapiens, UniProt P22894); test: MMP-8 off-target inhibition; type: biochemical
# Sequence of MMP-8 (P22894 101-467): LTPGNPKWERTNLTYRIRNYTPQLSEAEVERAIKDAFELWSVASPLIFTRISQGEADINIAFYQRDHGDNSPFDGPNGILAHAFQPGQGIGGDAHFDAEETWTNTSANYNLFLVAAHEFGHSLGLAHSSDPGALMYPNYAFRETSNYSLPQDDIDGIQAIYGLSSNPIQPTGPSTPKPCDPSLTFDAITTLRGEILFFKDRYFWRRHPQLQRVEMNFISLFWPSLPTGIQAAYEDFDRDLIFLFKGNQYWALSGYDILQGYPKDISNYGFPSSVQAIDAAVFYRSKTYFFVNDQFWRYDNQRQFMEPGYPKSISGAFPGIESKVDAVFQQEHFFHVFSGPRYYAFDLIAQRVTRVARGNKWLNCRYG
# Description: as §1
# HDAC-8 = molecular target: T2, HDAC-8 (Homo sapiens, UniProt Q9BY41); test: HDAC-8 inhibitor screening kit; type: biochemical
# T2 construct: purchased Sigma-Aldrich (Saint Louis, MO)
# T2 sequence (Q9BY41 1-377): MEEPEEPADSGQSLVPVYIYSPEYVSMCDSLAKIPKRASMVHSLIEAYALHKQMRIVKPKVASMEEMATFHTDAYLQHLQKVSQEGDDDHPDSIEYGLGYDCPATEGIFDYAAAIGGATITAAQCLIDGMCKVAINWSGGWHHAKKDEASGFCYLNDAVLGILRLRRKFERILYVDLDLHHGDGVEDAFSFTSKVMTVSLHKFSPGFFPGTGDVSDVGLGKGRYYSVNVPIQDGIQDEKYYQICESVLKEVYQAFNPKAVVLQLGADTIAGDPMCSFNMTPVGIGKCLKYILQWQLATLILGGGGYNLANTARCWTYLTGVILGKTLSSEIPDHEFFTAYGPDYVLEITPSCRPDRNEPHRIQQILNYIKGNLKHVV
# Description: as §1
# TACE (ADAM-17) = molecular target: T3, TACE (ADAM-17) (Homo sapiens, UniProt P78536); test: TACE inhibitor screening kit; type: biochemical
# T3 construct: purchased Sigma-Aldrich (Saint Louis, MO)
# T3 sequence (P78536 215-824): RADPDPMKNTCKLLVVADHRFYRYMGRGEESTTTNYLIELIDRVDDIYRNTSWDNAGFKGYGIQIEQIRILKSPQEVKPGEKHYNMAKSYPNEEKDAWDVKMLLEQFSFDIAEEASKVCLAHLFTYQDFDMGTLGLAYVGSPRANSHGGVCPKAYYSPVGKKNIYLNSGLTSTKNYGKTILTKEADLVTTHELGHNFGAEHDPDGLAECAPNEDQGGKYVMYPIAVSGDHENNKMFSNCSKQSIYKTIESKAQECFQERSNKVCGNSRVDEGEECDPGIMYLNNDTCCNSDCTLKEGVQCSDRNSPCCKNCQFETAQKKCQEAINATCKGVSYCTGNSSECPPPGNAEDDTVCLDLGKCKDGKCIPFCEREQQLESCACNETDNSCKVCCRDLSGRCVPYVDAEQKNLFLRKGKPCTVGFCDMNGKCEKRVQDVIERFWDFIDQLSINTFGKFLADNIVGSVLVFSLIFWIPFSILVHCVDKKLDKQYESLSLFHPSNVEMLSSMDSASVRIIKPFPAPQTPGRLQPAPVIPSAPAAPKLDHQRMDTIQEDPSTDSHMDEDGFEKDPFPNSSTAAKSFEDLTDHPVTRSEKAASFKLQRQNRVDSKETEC
# Description: as §1
# ColQ1 = ColQ1 (Bacillus cereus, UniProt B9J3S4); test: Ex vivo pig-skin model, hydroxyproline quantification; design: species or system B. cereus; conditions: pig-skin explants, 300 nM ColQ1, defined concentrations of compound, vs control
# Sequence of ColQ1 (B9J3S4 94-965): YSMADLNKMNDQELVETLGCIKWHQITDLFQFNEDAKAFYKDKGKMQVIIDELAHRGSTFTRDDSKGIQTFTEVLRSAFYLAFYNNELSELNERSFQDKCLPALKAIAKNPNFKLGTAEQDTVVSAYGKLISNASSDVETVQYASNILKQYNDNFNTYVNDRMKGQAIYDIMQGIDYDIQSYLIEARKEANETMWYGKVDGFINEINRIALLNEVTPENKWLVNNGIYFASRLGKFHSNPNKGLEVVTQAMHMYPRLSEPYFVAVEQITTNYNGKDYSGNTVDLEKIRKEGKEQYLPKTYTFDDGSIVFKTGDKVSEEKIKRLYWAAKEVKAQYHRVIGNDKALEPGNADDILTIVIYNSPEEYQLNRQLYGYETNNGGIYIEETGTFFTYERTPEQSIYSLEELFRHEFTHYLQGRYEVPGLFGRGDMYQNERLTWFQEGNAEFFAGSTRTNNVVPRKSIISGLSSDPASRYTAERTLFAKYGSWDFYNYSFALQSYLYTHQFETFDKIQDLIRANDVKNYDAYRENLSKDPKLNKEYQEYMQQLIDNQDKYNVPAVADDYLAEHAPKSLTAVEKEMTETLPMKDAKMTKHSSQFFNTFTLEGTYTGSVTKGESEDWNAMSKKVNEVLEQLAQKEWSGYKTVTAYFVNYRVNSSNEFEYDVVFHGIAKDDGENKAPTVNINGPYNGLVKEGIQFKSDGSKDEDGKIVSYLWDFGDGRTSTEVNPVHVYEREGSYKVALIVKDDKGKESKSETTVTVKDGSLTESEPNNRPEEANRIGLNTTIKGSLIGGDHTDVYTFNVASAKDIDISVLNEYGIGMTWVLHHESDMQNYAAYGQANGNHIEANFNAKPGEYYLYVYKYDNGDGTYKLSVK
# Description: We established an ex vivo model based on pig skin to address the impact of our inhibitors on living mammalian tissue and on the contained collagen as the natural substrate of collagenase. We challenged the skin, prepared from the ear of freshly slaughtered pigs, with pure ColQ1 from B. cereus to degrade collagen. We assessed the activity of ColQ1 by quantifying the formation of hydroxyproline as an indicator for collagen turnover (Figure 4). Optimization of the assay conditions for the model consisted of examining different buffer conditions and different protein concentrations (Figures S1 and S2). To evaluate the potential effect of 25 on collagen turnover, we incubated the skin with ColQ1 in the absence and presence of defined concentrations of this compound. […] The good performance of our inhibitors in this model is a sound starting point for their subsequent testing under in vivo conditions. We expect that our inhibitors will accelerate the in vivo healing process, by preventing the distribution of infection. […]
# Skin explants were obtained from freshly slaughtered pig ears, which were supplied by a local slaughterhouse. […] Absorbance was measured using a PHERAstar plate reader (BMG Labtech). The absorbance values were converted into the hydroxyproline concentration (μg/mL) using the calibration curve of hydroxyproline as a reference (Figure S3).
# in vitro = conditions: human, HepG2 cells (hepatocellular carcinoma)
# LasB = LasB (Pseudomonas aeruginosa, UniProt Q02RJ6); test: biochemical; conditions: LasB IC50, FRET-based assay
# Sequence of LasB (Q02RJ6 198-498): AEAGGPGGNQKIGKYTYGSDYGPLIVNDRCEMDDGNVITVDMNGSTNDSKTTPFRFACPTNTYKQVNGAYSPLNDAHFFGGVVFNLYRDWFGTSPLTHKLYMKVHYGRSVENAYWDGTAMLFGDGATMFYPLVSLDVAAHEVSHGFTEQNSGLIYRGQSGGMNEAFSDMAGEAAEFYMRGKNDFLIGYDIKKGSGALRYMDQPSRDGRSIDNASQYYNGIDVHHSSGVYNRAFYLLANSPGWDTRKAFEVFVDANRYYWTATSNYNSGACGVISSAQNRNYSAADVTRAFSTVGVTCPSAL
# Sequence of collagenase unit of ColG (ColG-CU) (Q9X721 111-786): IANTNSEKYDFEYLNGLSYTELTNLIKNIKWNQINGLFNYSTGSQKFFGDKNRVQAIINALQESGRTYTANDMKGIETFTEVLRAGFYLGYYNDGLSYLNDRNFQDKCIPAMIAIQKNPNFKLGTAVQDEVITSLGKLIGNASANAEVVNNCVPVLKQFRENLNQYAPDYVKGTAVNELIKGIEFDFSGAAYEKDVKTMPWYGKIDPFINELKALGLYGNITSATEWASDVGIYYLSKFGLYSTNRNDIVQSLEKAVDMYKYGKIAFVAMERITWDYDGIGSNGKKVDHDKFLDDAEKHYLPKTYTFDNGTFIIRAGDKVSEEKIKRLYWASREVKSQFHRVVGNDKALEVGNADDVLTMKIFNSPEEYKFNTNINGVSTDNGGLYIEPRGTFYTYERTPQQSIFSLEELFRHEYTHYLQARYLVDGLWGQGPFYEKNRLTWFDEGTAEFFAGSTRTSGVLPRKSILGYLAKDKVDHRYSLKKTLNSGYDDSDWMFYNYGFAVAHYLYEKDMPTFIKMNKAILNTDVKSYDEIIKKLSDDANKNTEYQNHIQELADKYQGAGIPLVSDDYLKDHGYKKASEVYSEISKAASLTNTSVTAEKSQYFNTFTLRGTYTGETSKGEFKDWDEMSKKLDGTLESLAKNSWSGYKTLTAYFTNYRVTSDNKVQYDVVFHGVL
smiles,measurement,setting,value
"CC(=O)c1ccc(N2C(=O)CC(S)C2=O)cc1 (stereo not drawn) [Compound 25, 1-(4-Acetylphenyl)-3-mercaptopyrrolidine-2,5-dione]",inhibition at 100 µM,[1],100 ± 2%
same,inhibition at 100 µM,MMP-1,< 10%
same,inhibition at 50 µM,"MMP-8; 50 µM compound, read-out: MMP-8 % inh @50µM",< 10%
same,inhibition at 100 µM,"MMP-8; read-out: MMP-8 % inhibition @ 100 μM, 100 μM compound",94 ± 1%
same,IC50,HDAC-8,> 100 µM
same,IC50,TACE (ADAM-17),3.4 ± 1.2 µM
same,hydroxyproline released (collagenolytic activity of ColQ1),ColQ1,significantly reduced amount of hydroxyproline released compared to control
same,IC50,in vitro,> 100 µM
same,IC50,LasB,64 ± 7.5 µM
